Experimental findings from US10407409B2, “6-(5-hydroxy-1H-pyrazol-1-yl)nicotinamide inhibitors of PHD” (Takeda Pharmaceutical Company Limited, priority 2013, dated 2019) are described below.

Test [1] concerns HIF1a protein in H9c2 rat cardiomyocytes. Nature of the test: Cell-based HIF-alpha stabilization assay (inhibition of PHD in cells). As to conditions: Rattus norvegicus, H9c2, 24 h, 24 hrs compound incubation, HIF1a protein by ELISA, read-out: Inhibition of PHD in cells (pEC50) (converted). The protocol: Example B Inhibition of PHD in Cells
PHD Inhibition is Determined Using (Secondary Assay)
Cell-Based HIF-Alpha Stabilization Assay:
H9c2 rat cardiomyocytes (ATCC) were seeded in 96-well tissue culture microplates and cultured for 24 hours prior to addition of compounds (11 point range of serial dilutions) or dimethylsulfoxide vehicle. After 24 hrs of compound incubation, whole cell extracts were prepared by lysing cells in cell extraction buffer containing protease and phosphatase inhibitors (Meso-Scale Discovery). HIF1a protein content was assessed by ELISA (Meso-Scale Discovery) and expressed as a % relative to the maximum response obtained from the positive control, desferrioxamine (Sigma-Aldrich). Compound EC50s were obtained by curve-fitting using XLfit4 MicroSoft Excel curve-fitting software. Compound EC50pos were obtained using XLfit4 to calculate the compound concentration that results in 50% of the desferrioxamine maximum response.
(An ELISA detects its analyte on a solid surface through an enzyme-linked reagent.)

The target in test [2] is PHD2 enzyme (residues 181-417) (Homo sapiens (Human), UniProt Q9GZT9). Description: Inhibition of PHD enzyme (LC/MS peptide hydroxylation assay). The class given is biochemical. As to conditions: PHD2 (residues 181-417) 5 nM, 60 min pre-incubation; -log(IC50), IC50 molar. The protocol: Example A Inhibition of PHD Enzyme
Chain of PHD2 enzyme (residues 181-417) (Q9GZT9 181-417): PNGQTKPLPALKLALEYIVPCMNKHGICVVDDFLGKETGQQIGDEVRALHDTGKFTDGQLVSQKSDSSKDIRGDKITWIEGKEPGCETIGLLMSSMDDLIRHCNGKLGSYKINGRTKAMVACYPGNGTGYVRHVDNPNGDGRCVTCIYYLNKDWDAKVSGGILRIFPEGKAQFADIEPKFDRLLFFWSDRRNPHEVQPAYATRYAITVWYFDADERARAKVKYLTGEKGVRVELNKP
The IC50 values for the PHD2 enzyme (residues 181-417) were determined by mixing increasing amounts of inhibitor with a fixed amount of enzyme (5 nM, final concentration) and Biotin labeled peptide (Biotin-Asp-Leu-Glu-Met-Leu-Ala-Pro-Tyr-Ile-Pro-Met-Asp-Asp-Asp-Phe-Gln-Leu, 1 uM final concentration) and 2-Oxyglutarate (2 uM final concentration) in 50 mM HEPES, 50 mM KCl, 0.5 mM TCEP, 2 uM FeCl2, 0.1 mg/ml BSA, at pH 7.3. The reaction was conducted by pre-incubating the enzyme in the presence of inhibitor for 60 min at room temperature. The activity of the free enzyme was measured by adding the peptide, the 2-Oxoglutarate (see above for final concentrations), and Ascorbic Acid (1 mM final concentration). The enzymatic activity was quenched after 60 min by adding an excess of a tight binding inhibitor to the assay mixture. The amount of product released was measured by using a LC/MS system (Agilent HPLC with Applied Biosystems API3000 Mass Spectrometer). Data were analyzed using the classical isotherm equation for the determination of IC50 values and are pIC50, i.e., −log(IC50), where IC50 is molar concentration and are reported as pIC50, i.e., −log(IC50), where IC50 is molar concentration.

For `CN1CCC(CNC(=O)c2ccc(-n3ncc(-c4ccc(C#N)cc4)c3O)nc2)CC1` [Example 271, 6-(4-(4-cyanophenyl)-5-hydroxy-1H-pyrazol-1-yl)-N-((1-methylpiperidin-4-yl)methyl)nicotinamide], the EC50 in test [1] is 1550 nM. For the same molecule, in test [2], the “PHD Inhibition (pIC50)” value is reported as 6.98.

Take `Cc1cc(C#N)ccc1-c1cnn(-c2ccc(C(=O)N3CCN(C(C)(C)C)CC3)cn2)c1O` [Example 291, 4-(1-(5-(4-(tert-butyl)piperazine-1-carbonyl)pyridin-2-yl)-5-hydroxy-1H-pyrazol-4-yl)-3-methylbenzonitrile]: the EC50 in test [1] was 977 nM. In test [2], the “PHD Inhibition (pIC50)” value worked out at 8.15.

Take `Cc1cc(C#N)ccc1-c1cnn(-c2ccc(C(=O)N(C)C3CCN(C4CC4)CC3)cn2)c1O` [Example 296, 6-(4-(4-cyano-2-methylphenyl)-5-hydroxy-1H-pyrazol-1-yl)-N-(1-cyclopropylpiperidin-4-yl)-N-methylnicotinamide]: the EC50 in test [1] is 1000 nM. Besides, the “PHD Inhibition (pIC50)” value in test [2] amounted to 8.23.

On to `COCCCCNC(=O)c1ccc(-n2ncc(-c3ccc(C#N)cc3)c2O)nc1` [Example 235, 6-(4-(4-cyanophenyl)-5-hydroxy-1H-pyrazol-1-yl)-N-(4-methoxybutyl)nicotinamide], for which the EC50 in test [1] is 269 nM. Moreover, the “PHD Inhibition (pIC50)” value in test [2] worked out at 7.43.

For the molecule `N#Cc1ccc(-c2cnn(-c3ccc(C(=O)NCCC4CC4)cn3)c2O)cc1` [Example 53, 6-(4-(4-cyanophenyl)-5-hydroxy-1H-pyrazol-1-yl)-N-(2-cyclopropylethyl)nicotinamide], the EC50 in test [1] is 525 nM. In addition, the “PHD Inhibition (pIC50)” value in test [2] was found to be 7.03.

As to `Cc1cc(C#N)ccc1-c1cnn(-c2ccc(C(=O)N3CCN(C4CC4)[C@H](C)C3)cn2)c1O` [Example 375, (R)-4-(1-(5-(4-cyclopropyl-3-methylpiperazine-1-carbonyl)pyridin-2-yl)-5-hydroxy-1H-pyrazol-4-yl)-3-methylbenzonitrile], the EC50 in test [1] was 1000 nM. In test [2], the “PHD Inhibition (pIC50)” value was determined as 8.06.

Regarding `COc1cc(-c2cnn(-c3ccc(C(=O)NCCCn4cccn4)cn3)c2O)ccn1` [Example 43, N-(3-(1H-pyrazol-1-yl)propyl)-6-(5-hydroxy-4-(2-methoxypyridin-4-yl)-1H-pyrazol-1-yl)nicotinamide], in test [1], the EC50 was 347 nM. Besides, in test [2], the “PHD Inhibition (pIC50)” value is 8.2.

Regarding `N#Cc1ccc(-c2cnn(-c3ccc(C(=O)NC4CCCOC4)cn3)c2O)cc1` (centres unmarked) [Example 155, 6-(4-(4-cyanophenyl)-5-hydroxy-1H-pyrazol-1-yl)-N-(tetrahydro-2H-pyran-3-yl)nicotinamide], the EC50 in test [1] is 1550 nM. In test [2], the “PHD Inhibition (pIC50)” value was found to be 7.62.

Take `CNCCCNC(=O)c1ccc(-n2ncc(-c3ccnc(OC)c3)c2O)nc1` [Example 42, 6-(5-hydroxy-4-(2-methoxypyridin-4-yl)-1H-pyrazol-1-yl)-N-(3-(methylamino)propyl)nicotinamide]: in test [1], the EC50 is 3390 nM. Besides, the “PHD Inhibition (pIC50)” value in test [2] was 7.5.

As for `COc1cc(-c2cnn(-c3ccc(C(=O)NC4CCOCC4)cn3)c2O)ccn1` [Example 15, 6-(5-hydroxy-4-(2-methoxypyridin-4-yl)-1H-pyrazol-1-yl)-N-(tetrahydro-2H-pyran-4-yl)nicotinamide], the EC50 in test [1] was 646 nM. For the same molecule, the “PHD Inhibition (pIC50)” value in test [2] came out at 7.21.

For `COC1CN(C(=O)c2ccc(-n3ncc(-c4ccc(C#N)cc4C)c3O)nc2)C1` [Example 184, 4-(5-hydroxy-1-(5-(3-methoxyazetidine-1-carbonyl)pyridin-2-yl)-1H-pyrazol-4-yl)-3-methylbenzonitrile], in test [1], the EC50 was 214 nM. In addition, the “PHD Inhibition (pIC50)” value in test [2] is on record as 8.1.

As to `Cc1cc(C#N)c(F)cc1-c1cnn(-c2ccc(C(=O)N3CCOCC3)cn2)c1O` [Example 398, 2-fluoro-4-(5-hydroxy-1-(5-(morpholine-4-carbonyl)pyridin-2-yl)-1H-pyrazol-4-yl)-5-methylbenzonitrile], in test [1], the EC50 was 1950 nM. Also, the “PHD Inhibition (pIC50)” value in test [2] amounted to 8.65.

As to `Cc1cc(C#N)ccc1-c1cnn(-c2ccc(C(=O)N3CCN(CC(F)F)CC3)cn2)c1O` [Example 311, 4-(1-(5-(4-(2,2-difluoroethyl)piperazine-1-carbonyl)pyridin-2-yl)-5-hydroxy-1H-pyrazol-4-yl)-3-methylbenzonitrile], the EC50 in test [1] is 1480 nM. The “PHD Inhibition (pIC50)” value in test [2] amounted to 8.51.

`Cc1cc(C#N)ccc1-c1cnn(-c2ccc(C(=O)NCCC3CCOC3)cn2)c1O` (centres unmarked) [Example 66, 6-(4-(4-cyano-2-methylphenyl)-5-hydroxy-1H-pyrazol-1-yl)-N-(2-(tetrahydrofuran-3-yl)ethyl)nicotinamide]: the EC50 in test [1] is 120 nM. Also, the “PHD Inhibition (pIC50)” value in test [2] came out at 7.22.

For the molecule `Cc1cc(C#N)ccc1-c1cnn(-c2ccc(C(=O)N3CC(N(C)C4CCC4)C3)cn2)c1O` [Example 297, 4-(1-(5-(3-(cyclobutyl(methyl)amino)azetidine-1-carbonyl)pyridin-2-yl)-5-hydroxy-1H-pyrazol-4-yl)-3-methylbenzonitrile], the EC50 in test [1] was 525 nM. Further, the “PHD Inhibition (pIC50)” value in test [2] was 8.39.

With `Cc1c(-c2cnn(-c3ccc(C(=O)N4CCN(C(C)C)[C@@H](C)C4)cn3)c2O)ccc(C#N)c1F` [Example 339, (S)-2-fluoro-4-(5-hydroxy-1-(5-(4-isopropyl-3-methylpiperazine-1-carbonyl)pyridin-2-yl)-1H-pyrazol-4-yl)-3-methylbenzonitrile], the EC50 in test [1] was 2040 nM. In test [2], the “PHD Inhibition (pIC50)” value is given as 8.29.

On to `Cc1cc(C#N)ccc1-c1cnn(-c2ccc(C(=O)N3CCN(CC(F)(F)F)CC3)cn2)c1O` [Example 312, 4-(5-hydroxy-1-(5-(4-(2,2,2-trifluoroethyl)piperazine-1-carbonyl)pyridin-2-yl)-1H-pyrazol-4-yl)-3-methylbenzonitrile], for which the EC50 in test [1] was 1820 nM. Further, in test [2], the “PHD Inhibition (pIC50)” value amounted to 8.50.

Consider `COCC(C)CNC(=O)c1ccc(-n2ncc(-c3ccc(C#N)cc3C)c2O)nc1` (centres unmarked) [Example 182, 6-(4-(4-cyano-2-methylphenyl)-5-hydroxy-1H-pyrazol-1-yl)-N-(3-methoxy-2-methylpropyl)nicotinamide], for which the EC50 in test [1] is 309 nM. Moreover, the “PHD Inhibition (pIC50)” value in test [2] came to 8.1.

For the molecule `CCN1CCN(C(=O)c2ccc(-n3ncc(-c4ccc(C#N)c(F)c4C)c3O)nc2)[C@H](C)C1` [Example 330, (R)-4-(1-(5-(4-ethyl-2-methylpiperazine-1-carbonyl)pyridin-2-yl)-5-hydroxy-1H-pyrazol-4-yl)-2-fluoro-3-methylbenzonitrile], the EC50 in test [1] is 407 nM. The “PHD Inhibition (pIC50)” value in test [2] turned out to be 8.34.

For the molecule `CCNC(=O)c1ccc(-n2ncc(-c3ccc(C#N)cc3)c2O)nc1` [Example 266, 6-(4-(4-cyanophenyl)-5-hydroxy-1H-pyrazol-1-yl)-N-ethylnicotinamide], the EC50 in test [1] is 1910 nM. The “PHD Inhibition (pIC50)” value in test [2] is 7.23.

For `COCCCN(C)C(=O)c1ccc(-n2ncc(-c3ccc(C#N)cc3C)c2O)nc1` [Example 251, 6-(4-(4-cyano-2-methylphenyl)-5-hydroxy-1H-pyrazol-1-yl)-N-(3-methoxypropyl)-N-methylnicotinamide], the EC50 in test [1] is 324 nM. Also, the “PHD Inhibition (pIC50)” value in test [2] was 8.2.

Turning to `Cc1cc(-c2cnn(-c3ccc(C(=O)NCC4CCOCC4)cn3)c2O)ccn1` [Example 223, 6-(5-hydroxy-4-(2-methylpyridin-4-yl)-1H-pyrazol-1-yl)-N-((tetrahydro-2H-pyran-4-yl)methyl)nicotinamide], in test [1], the EC50 is 50100 nM. Moreover, in test [2], the “PHD Inhibition (pIC50)” value was determined as 5.43.

With `CCNC(=O)c1cnc(-n2ncc(-c3ccc(C#N)cc3)c2O)cc1C` [Example 274, 6-(4-(4-cyanophenyl)-5-hydroxy-1H-pyrazol-1-yl)-N-ethyl-4-methylnicotinamide], the EC50 in test [1] was 6460 nM. Besides, in test [2], the “PHD Inhibition (pIC50)” value turned out to be 7.03.

On to `Cc1cc(C#N)ccc1-c1cnn(-c2ccc(C(=O)N(C)C3CCN(C)C3)cn2)c1O` (centres unmarked) [Example 368, 6-(4-(4-cyano-2-methylphenyl)-5-hydroxy-1H-pyrazol-1-yl)-N-methyl-N-(1-methylpyrrolidin-3-yl)nicotinamide], for which, in test [1], the EC50 was 575 nM. Besides, the “PHD Inhibition (pIC50)” value in test [2] stood at 7.89.

With `N#Cc1ccc(-c2cnn(-c3ccc(C(=O)NCCCOCC4CC4)cn3)c2O)cc1` [Example 118, 6-(4-(4-cyanophenyl)-5-hydroxy-1H-pyrazol-1-yl)-N-(3-(cyclopropylmethoxy)propyl)nicotinamide], in test [1], the EC50 is 316 nM. Besides, in test [2], the “PHD Inhibition (pIC50)” value turned out to be 7.36.
